These are literature values, as cited in US12011508B2, “Methods and devices for reducing vascular smooth muscle cell proliferation” (Board of Supervisors of Louisiana State University and …, priority 2018, dated 2024).

SMILES strings stand for the structures.

Turning to `O=c1c(O)c(-c2ccc(O)c(O)c2)oc2cc(O)cc(O)c12` [QUER, 2-(3,4-dihydroxyphenyl)-3,5,7-trihydroxy-4H-1-benzopyran-4-one], the water solubility result was “practically insoluble in water”.
